Consider 26 compounds from patent US11000491B2, “Amino-aryl-benzamide compounds and methods of use thereof” (HEPANOVA, INC., priority 2017, dated 2021).

pEC50: −log10 of the molar value. Read-outs that look alike come from different tables or passages of the source.

Holding throughout (format): cell-based
The subject of assay [1] is Huh7 cells. Put plainly: LD content in Huh7 cells pre-treated with insulin, Oil-Red-O staining, absorbance OD 540 nm. As to conditions: procedure of Example 3, read-out: LD content inhibition (EC50). The protocol: FIG. 6. […] Spectrophotometric absorbance of untreated or HPN-01-treated Huh7 cells pre-incubated with 1 mM insulin is shown. LD contents were stained using Oil Red O, and measured by determining spectrophotometer absorbance under OD 540 nm.
Huh7 cells were mock treated or pre-treated with 1 mM insulin, and subsequently treated with indicated amounted of HPN-01.
The ability of each HPN-01 derivative obtained from the synthesis methods described above, to inhibit LD formation in hepatocytes, was tested using the procedure outlined in Example 3. The results of this analysis are shown below in Table 6 (second column).

The subject of assay [2] is SREBP-1. Put plainly: SREBP-1 expression in cultured primary human hepatocytes. As to conditions: procedure of Example 6, read-out: SREBP-1 mRNA inhibition (EC50). As for the experimental part: (§1) FIG. 9. Effects of HPN-01 on the expression of SREBP-1 (master regulator of hepatic glucose metabolism and fatty acid synthesis) and SREBP-2 (master regulator of cholesterol homeostasis in cells) in cultured primary human hepatocytes.
(§2) Cultured primary human hepatocytes were treated with various concentrations of HPN-01, and the expression levels of SREBP-1 (master regulator of hepatic glucose metabolism and fatty acid synthesis) and SREBP-2 (master regulator of cholesterol homeostasis in cells) were subsequently determined.
(§3) The ability of each HPN-01 derivative obtained from the synthesis methods described above, to inhibit SREBP-1 and SREBP-2 mRNA expression in primary hepatocytes, was tested using the procedure outlined in Example 6. The results of this analysis are shown in Table 6 (third and fourth columns).

For assay [3], the system named is SREBP-2. Put plainly: SREBP-2 expression in cultured primary human hepatocytes. Particulars: procedure of Example 6, read-out: SREBP-2 mRNA inhibition (EC50). The protocol: as §1, §2, §3
Setting [4] is: Homo sapiens, Huh-7, Huh7 cells.

The pEC50 is the negative decadic logarithm of the EC50, by convention in mol/L. As for `NC(=O)c1cc(-c2ccc(Cl)cc2)cc(-c2ccc(S(N)(=O)=O)cc2)c1NC(=O)CO` [HPN-01502, 4-chloro-4′-(2-hydroxyacetamido)-4″-sulfamoyl-[1,1′:3′,1″-terphenyl]-5′-carboxamide], the pEC50 in assay [1] (setting [4]) is 6.10; in assay [2] (Homo sapiens, Hepatocyte), 5.78; in assay [3] (Homo sapiens, Hepatocyte) it was 5.64.
On the same counts, the results for `CCCNC(=O)c1cc(-c2ccc(Cl)cc2)cc(-c2ccc(S(N)(=O)=O)cc2)c1N` [HPN-01603, 4′-amino-4-chloro-N-propyl-4″-sulfamoyl-[1,1′:3′,1″-terphenyl]-5′-carboxamide] are 5.62, 5.14 and 5.03.
Take `CCOC(=O)/C=C/c1cc(C(N)=O)c(N)c(-c2ccc(S(N)(=O)=O)cc2)c1` [HPN-01115, ethyl (E)-3-(6-amino-5-carbamoyl-4′-sulfamoyl-[1,1′-biphenyl]-3-yl)acrylate]: the pEC50 in assay [1] (setting [4]) was 5.63; in assay [2] (Homo sapiens, Hepatocyte), 5.19; in assay [3] (Homo sapiens, Hepatocyte) it was 5.22.
On the same counts, the results for `NC(=O)c1cc(-c2ccc(Cl)cc2)cc(N2CCN(S(N)(=O)=O)CC2)c1N` [HPN-01427, 4-amino-4′-chloro-5-(4-sulfamoylpiperazin-1-yl)-[1,1′-biphenyl]-3-carboxamide] are 5.95, 5.48 and 5.42.
On the same counts, the results for `NC(=O)c1cc(/C=C/C(=O)O)cc(-c2ccc(S(N)(=O)=O)cc2)c1N` [HPN-01113, (E)-3-(6-amino-5-carbamoyl-4′-sulfamoyl-[1,1′-biphenyl]-3-yl)acrylic acid] are 6.48, 6.16 and 6.01.
On to `NCCC(=O)Nc1c(C(N)=O)cc(-c2ccc(Br)cc2)cc1-c1ccc(S(N)(=O)=O)cc1` [HPN-01514, 4′-(3-aminopropanamido)-4-bromo-4″-sulfamoyl-[1,1′:3′,1″-terphenyl]-5′-carboxamide], for which the pEC50 was 5.94 in assay [1] (setting [4]); 5.55 in assay [2] (Homo sapiens, Hepatocyte); 5.29 in assay [3] (Homo sapiens, Hepatocyte).
On to `Nc1c(C(=O)Nc2cc[nH]c2)cc(-c2ccc(Cl)cc2)cc1-c1ccc(S(N)(=O)=O)cc1` [HPN-01628, 4′-amino-4-chloro-N-(1H-pyrrol-3-yl)-4″-sulfamoyl-[1,1′:3′,1″-terphenyl]-5′-carboxamide], for which the pEC50 is 5.94 in assay [1] (setting [4]); 5.62 in assay [2] (Homo sapiens, Hepatocyte); 5.26 in assay [3] (Homo sapiens, Hepatocyte).
On the same counts, the results for `CC(C)OC(=O)/C=C/c1cc(C(N)=O)c(N)c(-c2ccc(S(N)(=O)=O)cc2)c1` [HPN-01116, isopropyl (E)-3-(6-amino-5-carbamoyl-4′-sulfamoyl-[1,1′-biphenyl]-3-yl)acrylate] are 6.00, 5.43 and 5.30.
As to `Nc1c(C(=O)NCc2ccc[nH]2)cc(-c2ccc(Cl)cc2)cc1-c1ccc(S(N)(=O)=O)cc1` [HPN-01629, N-((1H-pyrrol-2-yl)methyl)-4′-amino-4-chloro-4″-sulfamoyl-[1,1′:3′,1″-terphenyl]-5′-carboxamide], the pEC50 in assay [1] (setting [4]) was 5.86; in assay [2] (Homo sapiens, Hepatocyte), 5.70; in assay [3] (Homo sapiens, Hepatocyte) it was 5.07.
For `CCCC(=O)Oc1ccc(-c2cc(C(N)=O)c(N)c(-c3ccc(S(N)(=O)=O)cc3)c2)cc1` [HPN-01306, 4′-amino-5′-carbamoyl-4″-sulfamoyl-[1,1′:3′,1″-terphenyl]-4-yl butyrate], the pEC50 was 5.88 in assay [1] (setting [4]); 5.75 in assay [2] (Homo sapiens, Hepatocyte); 5.49 in assay [3] (Homo sapiens, Hepatocyte).
On the same counts, the results for `Nc1c(-c2ccc(S(N)(=O)=O)cc2)cc(-c2ccc(Br)cc2)cc1N1CCNCC1` [HPN-01622, 6′-amino-4″-bromo-5′-(piperazin-1-yl)-[1,1′:3′,1″-terphenyl]-4-sulfonamide] are 4.64, 4.43 and 4.29.
On the same counts, the results for `Nc1c(C(=O)Nc2cccnc2)cc(-c2ccc(Cl)cc2)cc1-c1ccc(S(N)(=O)=O)cc1` [HPN-01625, 4′-amino-4-chloro-N-(pyridin-3-yl)-4″-sulfamoyl-[1,1′:3′,1″-terphenyl]-5′-carboxamide] are 5.63, 5.48 and 4.73.
On the same counts, the results for `Nc1c(C(=O)Nc2ccc(F)c(F)c2)cc(-c2ccc(Br)cc2)cc1-c1ccc(S(N)(=O)=O)cc1` [HPN-01616, 4′-amino-4-bromo-N-(3,4-difluorophenyl)-4″-sulfamoyl-[1,1′:3′,1″-terphenyl]-5′-carboxamide] are 5.97, 5.45 and 5.17.
For the compound `Nc1c(C(=O)Nc2ccsc2)cc(-c2ccc(Cl)cc2)cc1-c1ccc(S(N)(=O)=O)cc1` [HPN-01627, 4′-amino-4-chloro-4″-sulfamoyl-N-(thiophen-3-yl)-[1,1′:3′,1″-terphenyl]-5′-carboxamide], the pEC50 was 5.92 in assay [1] (setting [4]); 5.71 in assay [2] (Homo sapiens, Hepatocyte); 5.37 in assay [3] (Homo sapiens, Hepatocyte).
On the same counts, the results for `COc1ccc(C(=O)OCC#Cc2cc(C(N)=O)c(N)c(-c3ccc(S(N)(=O)=O)cc3)c2)cc1` [HPN-01218, 3-(6-amino-5-carbamoyl-4′-sulfamoyl-[1,1′-biphenyl]-3-yl)prop-2-yn-1-yl 4-methoxybenzoate] are 6.00, 5.34 and 5.19.
On the same counts, the results for `NC(=O)c1cc(C#CCOC(=O)c2ccccc2Br)cc(-c2ccc(S(N)(=O)=O)cc2)c1N` [HPN-01211, 3-(6-amino-5-carbamoyl-4′-sulfamoyl-[1,1′-biphenyl]-3-yl)prop-2-yn-1-yl 2-bromobenzoate] are 6.11, 5.42 and 5.15.
Turning to `C[Si](C)(C)C#Cc1cc(C(N)=O)c(N)c(-c2ccc(S(N)(=O)=O)cc2)c1` [HPN-01209, 2-amino-4′-sulfamoyl-5-((trimethylsilyl)ethynyl)-[1,1′-biphenyl]-3-carboxamide], the negative-log EC50 (pEC50) is 6.09 in assay [1] (setting [4]), 5.63 in assay [2] (Hepatocyte) and 5.70 in assay [3] (Hepatocyte).
With `NC(=O)c1cc(-c2ccc(Cl)cc2)cc(-c2ccc(S(N)(=O)=O)cn2)c1N` [HPN-01428, 4-amino-4′-chloro-5-(5-sulfamoylpyridin-2-yl)-[1,1′-biphenyl]-3-carboxamide], the pEC50 in assay [1] (setting [4]) was 5.94; in assay [2] (Homo sapiens, Hepatocyte), 5.25; in assay [3] (Homo sapiens, Hepatocyte), 4.73.
On the same counts, the results for `NC(=O)c1cc(/C=C/C(=O)NCc2ccccc2)cc(-c2ccc(S(N)(=O)=O)cc2)c1N` [HPN-01131, (E)-2-amino-5-(3-(benzylamino)-3-oxoprop-1-en-1-yl)-4′-sulfamoyl-[1,1′-biphenyl]-3-carboxamide] are 6.42, 5.89 and 5.65.
On the same counts, the results for `NC(=O)N1CCN(c2cc(-c3ccc(Cl)cc3)cc(-c3ccc(S(N)(=O)=O)cc3)c2N)CC1` [HPN-01623, 4-(4′-amino-4-chloro-4″-sulfamoyl-[1, 1′:3′,1″-terphenyl]-5′-yl)piperazine-1-carboxamide] are 4.82, 4.42 and 4.30.
On the same counts, the results for `CCCCCCCOC(=O)/C=C/c1cc(C(N)=O)c(N)c(-c2ccc(S(N)(=O)=O)cc2)c1` [HPN-01118, heptyl (E)-3-(6-amino-5-carbamoyl-4′-sulfamoyl-[1,1′-biphenyl]-3-yl)acrylate] are 6.08, 5.63 and 5.60.
On to `NC(=O)c1cc(Nc2cccc(C(=O)O)c2)cc(-c2ccc(S(N)(=O)=O)cc2)c1N` [HPN-01317, 3-((6-amino-5-carbamoyl-4′-sulfamoyl-[1,1′-biphenyl]-3-yl)amino)benzoic acid], for which the pEC50 in assay [1] (setting [4]) was 6.24; in assay [2] (Homo sapiens, Hepatocyte), 5.47; in assay [3] (Homo sapiens, Hepatocyte) it was 5.36.
Take “4′-butyramido-4-chloro-4″-sulfamoyl-[1,1′:3′,1″-terphenyl]-5′-carboxamide [HPN-01515]”: the pEC50 in assay [1] (Huh7 cells) is 6.32; in assay [2], 6.02; in assay [3] it was 5.88.
Take `CC(=O)Nc1ccc(-c2cc(-c3ccc(Cl)cc3)cc(C(N)=O)c2N)cc1` [HPN-01407, 4″-acetamido-4’-amino-4-chloro-[1,1′:3′,1″-terphenyl]-5′-carboxamide]: the negative-log EC50 (pEC50) in assay [1] (setting [4]) was 5.97; in assay [2] (Homo sapiens, Hepatocyte), 5.27; in assay [3] (Homo sapiens, Hepatocyte), 5.01.
In the case of `NCCC(=O)Nc1c(C(N)=O)cc(-c2ccc(Cl)cc2)cc1-c1ccc(S(N)(=O)=O)cc1` [HPN-01517, 4′-(3-aminopropanamido)-4-chloro-4″-sulfamoyl-[1, 1′:3′,1″-terphenyl]-5′-carboxamide], the pEC50 in assay [1] (setting [4]) is 6.32; in assay [2], 5.71; in assay [3] it was 5.53.
As to “butyl (E)-3-(6-amino-5-carbamoyl-4′-sulfamoyl-[1,1′-biphenyl]-3-yl)acrylate [HPN-01117]”, the pEC50 in assay [1] (Huh7 cells) is 5.94; in assay [2], 5.16; in assay [3], 5.08.
